How the values were obtained:
[1] = system: chick chorioallantoic membrane (CAM); experiment: Chick chorioallantoic membrane (CAM) assay, paclitaxel in methylcellulose disks; format: in vivo
From the text: As noted above, the present invention provides methods and compositions which utilize anti-angiogenic factors. Briefly, within the context of the present invention, anti-angiogenic factors should be understood to include any protein, peptide, chemical, or other molecule, which acts to inhibit vascular growth. A variety of methods may be readily utilized to determine the anti-angiogenic activity of a given factor, including for example, chick chorioallantoic membrane ("CAM") assays. Briefly, as described in more detail below in Examples 2A and 2C, a portion of the shell from a freshly fertilized chicken egg is removed, and a methyl cellulose disk containing a sample of the anti-angiogenic factor to be tested is placed on the membrane. After several days (e.g., 48 hours), inhibition of vascular growth by the sample to be tested may be readily determined by visualization of the chick chorioallantoic membrane in the region surrounding the methyl cellulose disk. Inhibition of vascular growth may also be determined quantitatively, for example, by determining the number and size of blood vessels surrounding the methyl cellulose disk, as compared to a control methyl cellulose disk.
Fertilized, domestic chick embryos were incubated for 3 days prior to shell-less culturing. […] These were then placed into an incubator at 90% relative humidity and 3% CO2 and incubated for 3 days.
The membranes of the 8 day-old shell-less embryo were flooded with 2% glutaraldehyde in 0.1M Na cacodylate buffer; additional fixative was injected under the CAM. After 10 minutes in situ, the CAM was removed and placed into fresh fixative for 2 hours at room temperature. The tissue was then washed overnight in cacodylate buffer containing 6% sucrose. The areas of interest were postfixed in 1% osmium tetroxide for 1.5 hours at 4° C. The tissues were then dehydrated in a graded series of ethanols, solvent exchanged with propylene oxide, and embedded in Spurr resin. Thin sections were cut with a diamond knife, placed on copper grids, stained, and examined in a Joel 1200EX electron microscope. Similarly, […] sections were cut and stained with toluene blue for light microscopy.
This imaging setup was used at a magnification of 160 times which permitted the direct visualization of blood cells within the capillaries; thereby blood flow in areas of interest could be easily assessed and recorded. […] This scale represents the degree of overall inhibition with maximal inhibition represented as a 3 on the avascular gradient scale.

[2] = Release from ELVAX:poly-l-lactic acid microspheres, 18 hours tumbling at 37° C.; format: physicochemical

SMILES: CC(=O)O[C@H]1C(=O)[C@@]2(C)[C@H]([C@H](OC(=O)c3ccccc3)[C@]3(O)C[C@H](OC(=O)[C@H](O)[C@@H](NC(=O)c4ccccc4)c4ccccc4)C(C)=C1C3(C)C)[C@]1(OC(C)=O)CO[C@@H]1C[C@@H]2O [paclitaxel]
- avascular zone diameter ([1]; 48 h exposure, 10μ paclitaxel per 10 ml methylcellulose): 6 mm
- inhibition of angiogenesis ([1]; 48 hours after application): angiogenesis was inhibited
- cells arrested in mitosis in avascular zones ([1]; CAM histology): abundance of cells arrested in mitosis in all three germ layers
- onset of inhibition of angiogenesis ([1]; after application): 9 h
- time without revascularization of avascular zone ([1]; after application): at least 7 days
- avascular gradient scale ([1]; within 48 hours, depending on concentration): 3 (avascularity extending beyond the disk (6 mm in diameter))
- avascular zone diameter ([1]; within 48 hours, methylcellulose disks): 6 mm
- released from the microspheres ([2]; fluorescence): 6%
- released from the microspheres ([2]; uv/vis): 10.3%
